# Measurements reported in patent US20260248822A1, “METHOD AND COMPOSITION FOR THE TREATMENT OF CANCER” (IMPACT HEALTH GLOBAL LTD., priority 2023, published 2026).
# Like-named read-outs stand apart in the source and are kept apart here.
# Experiments:
# [1] = system: human lung cancer cells; conditions: cited from earlier work
# [2] = system: 4T1 cells; experiment: MTT cell viability assay in 4T1 cells; type: cell-based, Mouse; conditions: for cancer cell viability, dose dependence: 4T1 cells, 0.5, 1, 1.5 and 2 mM, compared to the control; for cytotoxicity at 2000 µM: Mus musculus, read-out: reduction of cell viability compared to the control
# Protocol: Mouse breast carcinoma model (4T1 cells) were cultured in the presence of taraxasterol, vitexin, sinigrin or a mixture of all these molecules, at the indicated concentrations (0.5, 1, 1.5, and 2 mM), for 48 hours. Cell viability was determined by MTT colorimetric assay, in which a yellow tetrazole is reduced to purple formazan in living cells. The resultant color was measured at 450 nm. Reduced viability of cancer cells was a marker for the efficacy of the treatment.
# [3] = system: human colon cancer cells; conditions: cited from earlier work
# [4] = system: tumors; conditions: mouse, in vivo; cited from earlier work
Structure (SMILES),apoptosis in human lung cancer cells [1],"cancer cell viability, dose dependence ([2]; 48 hours)","cytotoxicity at 2000 µM ([2]; 4T1, 48 h) [%]",apoptosis in human colon cancer cells [3],tumor growth in human colon cancer cells [3],"cytotoxicity at 2000 µM ([2]; 4T1 cells, 2 mM, 48 hours, MTT) [%]",growth of tumors in mice [4]
"C=CC/C(=N/OS(=O)(=O)O)S[C@@H]1O[C@H](CO)[C@@H](O)[C@H](O)[C@H]1O [sinigrin, (Z)-N-[1-(β-D-glucopyranosylsulfanyl)but-3-en-1-ylidene] hydroxylamine-O-sulfonic acid]",induces apoptosis,reduced cancer cell viability dose dependently,23,,,,
"C=C1CC[C@]2(C)CC[C@]3(C)[C@H](CC[C@@H]4[C@@]5(C)CC[C@H](O)C(C)(C)[C@@H]5CC[C@]43C)[C@H]2[C@@H]1C [taraxasterol, (3S,4aR,6aR,6bR,8aR,12S,12aR,12bR,14aR,14bR)-4,4,6a,6b,8a,12, 14b-heptamethyl-11-methylidenedocosahydropicen-3-ol]",,reduced cancer cell viability dose dependently,,induces apoptosis,suppresses tumor growth,29,
"O=c1cc(-c2ccc(O)cc2)oc2c([C@@H]3O[C@H](CO)[C@@H](O)[C@H](O)[C@H]3O)c(O)cc(O)c12 [vitexin, 8-(β-D-glucopyranosyl)-4′,5,7-trihydroxyflavone]",induces apoptosis,reduced cancer cell viability dose dependently,,,,20,suppresses the growth of tumors
